{
  "source": "BindingDB's records for doi:10.1016/j.bmcl.2004.12.068",
  "about": "(Pharmacor, 2005)",
  "note": "Counter-ions that a name gives are not always drawn.",
  "data": [
    {"biological_target": "T1, Dimer of Gag-Pol polyprotein [501-599] (Human immunodeficiency virus 1, UniProt P03367)", "T1 construct": "501-599", "assay": "Protease Inhibition Assay", "conditions": "not given", "procedure": "(§1) HIV-1 protease activity was measured by a continuous fluorometric assay using the internally quenched fluorogenic substrate DABCYL-Ser-Gln-Asn-Tyr-Pro-Ile-Val-Gln-EDANS. The proteolytic activity can be monitored by the increase in fluorescence intensity, and the protease products were analyzed by HPLC.", "units": {"Ki": "nM"}, "values": [
      {"compound": "Cc1ccc(S(=O)(=O)N(CC(C)C)[C@@H](CCCCNC(=O)OCC2c3ccccc3-c3ccccc32)C(=O)NN)cc1", "note": "[9H-fluoren-9-ylmethyl N-[(5S)-5-(hydrazinecarbonyl)-5-[(4-methylbenzene)(2-methylpropyl)sulfonamido]pentyl]carbamate]", "Ki": 254},
      {"compound": "Cc1ccc(S(=O)(=O)N(CC(C)C)[C@@H](CCCCNC(=O)OCC2c3ccccc3-c3ccccc32)C(=O)NO)cc1", "note": "[9H-fluoren-9-ylmethyl N-[(5S)-5-(hydroxycarbamoyl)-5-[(4-methylbenzene)(2-methylpropyl)sulfonamido]pentyl]carbamate]", "Ki": 245},
      {"compound": "Cc1ccc(S(=O)(=O)N(CC(C)C)[C@@H](CCCCNC(=O)OCC2c3ccccc3-c3ccccc32)c2nnn[nH]2)cc1", "note": "[9H-fluoren-9-ylmethyl N-[(5S)-5-[(4-methylbenzene)(2-methylpropyl)sulfonamido]-5-(1H-1,2,3,4-tetrazol-5-yl)pentyl]carbamate]", "Ki": "> 300"},
      {"compound": "Cc1ccc(S(=O)(=O)N(CC(C)C)[C@H](C=O)CCCCNC(=O)OCC2c3ccccc3-c3ccccc32)cc1", "note": "[9H-fluoren-9-ylmethyl N-[(5S)-5-[(4-methylbenzene)(2-methylpropyl)sulfonamido]-6-oxohexyl]carbamate]", "Ki": "> 300"},
      {"compound": "Cc1ccc(S(=O)(=O)N(CC(C)C)[C@@H](CCCCNC(=O)OCC2c3ccccc3-c3ccccc32)C(=N)N)cc1", "note": "[9H-fluoren-9-ylmethyl N-[(5S)-5-carbamimidoyl-5-[(4-methylbenzene)(2-methylpropyl)sulfonamido]pentyl]carbamate]", "Ki": 280},
      {"compound": "Cc1ccc(S(=O)(=O)N(CC(C)C)[C@@H](CCCCNC(=O)OCC2c3ccccc3-c3ccccc32)C(N)=S)cc1", "note": "[9H-fluoren-9-ylmethyl N-[(5S)-5-carbamothioyl-5-[(4-methylbenzene)(2-methylpropyl)sulfonamido]pentyl]carbamate]", "Ki": 127},
      {"compound": "Cc1ccc(S(=O)(=O)N(CC(C)C)[C@@H](CCCCNC(=O)OCC2c3ccccc3-c3ccccc32)C(N)=O)cc1", "note": "[9H-fluoren-9-ylmethyl N-[(5S)-5-carbamoyl-5-[(4-methylbenzene)(2-methylpropyl)sulfonamido]pentyl]carbamate]", "Ki": 107},
      {"compound": "Cc1ccc(S(=O)(=O)N(CC(C)C)[C@H](CN)CCCCNC(=O)OCC2c3ccccc3-c3ccccc32)cc1", "note": "[9H-fluoren-9-ylmethyl N-[(5S)-6-amino-5-[(4-methylbenzene)(2-methylpropyl)sulfonamido]hexyl]carbamate hydrochloride]", "Ki": "> 300"},
      {"compound": "Cc1ccc(S(=O)(=O)N(CC(C)C)[C@H](CO)CCCCNC(=O)OCC2c3ccccc3-c3ccccc32)cc1", "note": "[9H-fluoren-9-ylmethyl N-[(5S)-6-hydroxy-5-[(4-methylbenzene)(2-methylpropyl)sulfonamido]hexyl]carbamate]", "Ki": 105},
      {"compound": "Cc1ccc(S(=O)(=O)N(CC(C)C)[C@@H](CNC(=O)OCC2c3ccccc3-c3ccccc32)C(=O)O)cc1", "note": "[(2S)-3-{[(9H-fluoren-9-ylmethoxy)carbonyl]amino}-2-[(4-methylbenzene)(2-methylpropyl)sulfonamido]propanoic acid]", "Ki": "> 250"},
      {"compound": "Cc1ccc(S(=O)(=O)N(CC(C)C)[C@@H](CCNC(=O)OCC2c3ccccc3-c3ccccc32)C(=O)O)cc1", "note": "[(2S)-4-{[(9H-fluoren-9-ylmethoxy)carbonyl]amino}-2-[(4-methylbenzene)(2-methylpropyl)sulfonamido]butanoic acid]", "Ki": "> 250"},
      {"compound": "Cc1ccc(S(=O)(=O)N(CC(C)C)[C@@H](CCCCNC(=O)C2c3ccccc3-c3ccccc32)C(=O)O)cc1", "note": "[(2S)-6-(9H-fluoren-9-ylformamido)-2-[(4-methylbenzene)(2-methylpropyl)sulfonamido]hexanoic acid]", "Ki": 105},
      {"compound": "CC(C)CN(C(=O)c1ccccc1)[C@@H](CCCCNC(=O)OCC1c2ccccc2-c2ccccc21)C(=O)O", "note": "[(2S)-6-{[(9H-fluoren-9-ylmethoxy)carbonyl]amino}-2-[N-(2-methylpropyl)phenylformamido]hexanoic acid]", "Ki": "> 300"},
      {"compound": "Cc1ccc(S(=O)(=O)N(CC(C)C)[C@@H](CCCCNC(=O)OC(C)(C)C)C(=O)O)cc1", "note": "[(2S)-6-{[(tert-butoxy)carbonyl]amino}-2-[(4-methylbenzene)(2-methylpropyl)sulfonamido]hexanoic acid]", "Ki": "> 250"},
      {"compound": "Cc1ccc(S(=O)(=O)N(CC(C)C)[C@@H](CCCCCNC(=O)OCC2c3ccccc3-c3ccccc32)C(=O)O)cc1", "note": "[(2S)-7-{[(9H-fluoren-9-ylmethoxy)carbonyl]amino}-2-[(4-methylbenzene)(2-methylpropyl)sulfonamido]heptanoic acid]", "Ki": "> 250"},
      {"compound": "COC(=O)[C@H](CCCCNC(=O)OCC1c2ccccc2-c2ccccc21)N(CC(C)C)S(=O)(=O)c1ccc(C)cc1", "note": "[methyl (2S)-6-{[(9H-fluoren-9-ylmethoxy)carbonyl]amino}-2-[(4-methylbenzene)(2-methylpropyl)sulfonamido]hexanoate]", "Ki": "> 300"}
    ]},
    {"biological_target": "T1, Dimer of Gag-Pol polyprotein [501-599]", "assay": "Protease Inhibition Assay", "conditions": "pH 4.7; 30 °C", "procedure": "as §1", "units": {"Ki": "nM"}, "values": [
      {"compound": "Cc1ccc(S(=O)(=O)NCCC[C@H](NC(=O)OCC2c3ccccc3-c3ccccc32)C(=O)O)cc1", "note": "[(2S)-2-{[(9H-fluoren-9-ylmethoxy)carbonyl]amino}-5-[(4-methylbenzene)sulfonamido]pentanoic acid]", "Ki": 26200},
      {"compound": "Cc1ccc(S(=O)(=O)N(CCCC[C@H](NC(=O)OCC2c3ccccc3-c3ccccc32)C(=O)O)CC(C)C)cc1", "note": "[(2S)-2-{[(9H-fluoren-9-ylmethoxy)carbonyl]amino}-6-[(4-methylbenzene)(2-methylpropyl)sulfonamido]hexanoic acid]", "Ki": 2000},
      {"compound": "CC(C)(C)OC(=O)NCCCC[C@H](NC(=O)OCc1ccccc1)C(=O)O", "note": "[(2S)-2-{[(benzyloxy)carbonyl]amino}-6-{[(tert-butoxy)carbonyl]amino}hexanoic acid]", "Ki": "> 100000"},
      {"compound": "Cc1ccc(S(=O)(=O)N(CC(C)C)[C@@H](CCCCNC(=O)OCC2c3ccccc3-c3ccccc32)C(=O)O)cc1", "note": "[(2S)-6-{[(9H-fluoren-9-ylmethoxy)carbonyl]amino}-2-[(4-methylbenzene)(2-methylpropyl)sulfonamido]hexanoic acid]", "Ki": 5},
      {"compound": "Cc1ccc(S(=O)(=O)N[C@@H](CCCCNC(=O)OC(C)(C)C)C(=O)O)cc1", "note": "[(2S)-6-{[(tert-butoxy)carbonyl]amino}-2-[(4-methylbenzene)sulfonamido]hexanoic acid]", "Ki": "> 100000"}
    ]}
  ]
}
